Data as given in patent US8742123B2, “HIV integrase inhibitors from pyridoxine” (TaiMed Biologics, Inc., priority 2008, dated 2014).
Like-named read-outs stand apart in the source and are kept apart here.

Legend:
[1] = protein binding by Rapid Equilibrium Dialysis (RED), 10% FBS-RPMI; type: in vitro ADME; details: bovine, 37° C.
Procedure: (§1) Protein binding was tested by Rapid Equilibrium Dialysis (RED) method (The RED (Rapid equilibrium Dialysis) Device inserts instruction manual. Pierce, Rockford Ill.). […] The red chamber was loaded with 0.3 mL of samples containing compounds. The white chamber contained 0.5 mL of D-PBS buffer only. The plate was incubated at 37° C. while shaking at 150 rpm for 5 hours. Aliquots from both chambers were analyzed by LC/MS/MS. The multi-cycle antiviral activity in the absence and presence of human serum was determined by p24 ELISA measurement after 6 days of NL4.3 virus infection.

[2] = tested on: NL4.3 virus; test: multi-cycle antiviral activity in absence and presence of human serum, p24 ELISA; type: cell-based, HIV-1; details: for EC50: Human immunodeficiency virus 1, 144 h
Procedure: as §1

[3] = human liver microsome stability; type: in vitro ADME; details: pH 7.4, 1 μM compound
Procedure: After pre-incubation, the assay was started by the addition of 1 μM of compound. Samples were taken after 0, 15, 30, 60, 90 and 120 minutes of incubation (Fisher M B, Drug Metabolism and Disposition, 2000, 28, 560-566). GraphPad Prism software was used for data analysis. The results, showing that the compounds of the invention are metabolically stable in Human liver microsomes, are provided in Table 7 below.

[4] = protein binding by Rapid Equilibrium Dialysis (RED), human serum; type: in vitro ADME; details: 37° C., 100% HS
Procedure: as §1

[5] = tested on: wild type NL-4.3; test: multi-cycle infection assay in MT-4 cells (MTT cytoprotection); type: cell-based, HIV-1; details: Human immunodeficiency virus 1, MT4, 144 h, read-out: EC50 (nM) multi-cycle
Procedure: The antiviral efficacies of the integrase inhibitor compounds of the invention were evaluated based on EC50 measures obtained from two different in vitro HIV infection assay using cultured MT-4 cells: (1) a multi-cycle infection where cells were infected with wild type NL-4.3) and (2) a single-cycle infection where the cells were infected with a luciferase-bearing, envelope defective (env-) NL-4.3 virus pseudotyped with HIV-1 env (HXBc2.
The incubation period for the multi-cycle infection assay was 6 days. Cell viability (cytoprotection) and EC50 were determined using the colorimetric MTT assay (A. J. Japour et al, Antimicrobial Agents and Chemotherapy, 37, 1095-1101, 1993 and R. Pauwels et al. Journal of Virological Methods, 20, 309-321, 1988).

[6] = biological target: T1, recombinant HIV-1 integrase (Human immunodeficiency virus type 1 group M subtype B, UniProt P12497); test: integrase strand transfer assay; type: biochemical; details: compounds added after assembly, 10% DMSO, read-out: ST IC50
T1 construct: Recombinant integrase (250 ng/well) was assembled onto the immobilized donor oligonucleotide
Procedure: IC50 was determined for the compounds of the inventions based on data generated in strand transfer assays. The IC50 is a measure of the ability of the compounds tested to inhibit the integration of 3′-processed oligonucleotides by recombinant HIV-1 integrase.
Strand transfer assays were performed essentially as described in Hazuda, D. J.; Felock, P.; Hastings, J. C.; Pramanik, B.; Wolfe, A. J. Virol. 1997, 71, 7005-7011). Donor DNA (1.5 pmol/well), biotinylated on the 5′ end of the strand processed by integrase, was immobilized onto streptavidin-coated microtiter plates. Recombinant integrase (250 ng/well) was assembled onto the immobilized donor oligonucleotide in reaction buffer (20 mM Hepes, pH 7.6, 5 mM B-mercaptoethanol, 50 ug/mL bovine serum albumin) containing 30 mM MnCl2. Excess enzyme was removed, and the complexes were washed extensively prior to the addition of the target DNA substrate. The target DNA (0.75 pmoles/well) substrate was labeled on each 3′ end with FITC. After strand transfer, the FITC-labeled products were detected using an anti-FITC antibody conjugated with alkaline phosphatase (Roche) and a chemiluminescent substrate (Tropix CSPD with Sapphire II enhancer, Applied Biosystems). The assay was performed in a final concentration of 10% DMSO. To specifically evaluate inhibition of strand transfer, compounds were added after assembly, just prior to the addition of the target DNA.
The results of the integrase strand transfer assay are reported as IC50 values. IC50 values were determined using a sigmoidal dose-response equation. The formula used for calculating % inhibition was: % Inhibition=[1-(sample counts/average of positive control)]*100. […] Using GraphPad Prism or ActivityBase (IDBS) software IC50 was determined using following sigmoidal dose-response equation: Y=(A+((B−A)/(1+((C/X)^D))))

[7] = pharmacokinetic (PK) profile in rats; type: in vivo; details: female Sprague-Dawley rats, 5 mg/kg intravenously, 50 mg/kg orally, plasma LC/MS/MS
Procedure: Female Sprague-Dawley rats were randomly selected and assigned to two groups. A group of 13 rats were administered 5 mg/kg of compound 2 intravenously. A second group of 8 rats were administered 50 mg/kg of compound 2 orally. Following the dosing, blood was collected at 7 different time points. Plasma samples obtained from the blood samples were analyzed by LC/MS/MS and the bioavailability of compound 2 was determined.

[8] = tested on: HIV-1 isolate 94US33931N; test: acute infection assay in PHA-stimulated PBMCs, supernatant RT activity; type: cell-based; details: Human immunodeficiency virus 1, PBMC, 144 h, 6 day incubation
Procedure: (§2) Acute infection assays using fresh human phytohemagglutinin (PHA)-stimulated peripheral blood mononuclear cells (PBMCs) were carried out. PBMCs were stimulated with IL-2 and infected with one of two wild-type drug-sensitive clinical HIV-1 isolates. The strains HIV-1 used for the infections, 91US005 (primary R5 strain of HIV-1) and 94US33931N, are both Group M, Subtype B viruses. Antiviral activity was determined as a reduction in supernatent reverse transcriptase (RT) activity after a 6 day incubation.

[9] = tested on: HIV-1 isolate 91US005; test: as above; type: cell-based; details: Human immunodeficiency virus 1, PBMC, 144 h, HIV-1 isolate 91US005, 6 day incubation
Procedure: as §2

[10] = biological target: T2, CYP3A4 (Homo sapiens, UniProt P08684); test: human CYP inhibition in human liver microsomes; type: in vitro ADME; details: CYP3A4 (printed CYP34A)
T2 construct: the incubation medium contained 0.3 mg/mL human liver microsomes; from tissue; host or cells: human liver microsomes
Procedure: (§3) For the human CYP inhibition experiments, the incubation medium contained 0.3 mg/mL human liver microsomes, 100 mM phosphate buffer pH 7.4, 5 mM MgCl2, 1 mM EDTA. The respective substrates for CYP3A4, CYP2C9 and CYP2D6 were added at various concentrations in the presence or absence of the compounds tested. After pre-incubation, the reaction was initiated by the addition of NADPH at final concentration 1 mM. Incubation times were 10, 60 and 15 minutes for CYP3A4, CYP2C9 and CYP2D6, respectively (Walsky R L and Obach R S., Drug Metabolism and Disposition, 2004, 32, 647-660). GraphPad Prism software was used for data analysis.

[11] = biological target: T3, CYP2C9 (Homo sapiens, UniProt P11712); test: human CYP inhibition in human liver microsomes; type: in vitro ADME
T3 construct: the incubation medium contained 0.3 mg/mL human liver microsomes; from tissue; host or cells: human liver microsomes
Procedure: as §3

[12] = human liver microsomes, 1 mM NADPH and 1 mM UDPGA, read-out: Half-life in HLM (hrs) NADPH/UDPGA (converted)
[13] = human liver microsomes, 1 mM NADPH, read-out: Half-life in HLM (hrs) NADPH (converted)
[14] = human liver microsomes, 1 mM UDPGA, read-out: Half-life in HLM (hrs) UDPGA (converted)
[15] = MT-4 cells, wild type NL-4.3, 6 days, MTT

T2 sequence (P08684 whole entry): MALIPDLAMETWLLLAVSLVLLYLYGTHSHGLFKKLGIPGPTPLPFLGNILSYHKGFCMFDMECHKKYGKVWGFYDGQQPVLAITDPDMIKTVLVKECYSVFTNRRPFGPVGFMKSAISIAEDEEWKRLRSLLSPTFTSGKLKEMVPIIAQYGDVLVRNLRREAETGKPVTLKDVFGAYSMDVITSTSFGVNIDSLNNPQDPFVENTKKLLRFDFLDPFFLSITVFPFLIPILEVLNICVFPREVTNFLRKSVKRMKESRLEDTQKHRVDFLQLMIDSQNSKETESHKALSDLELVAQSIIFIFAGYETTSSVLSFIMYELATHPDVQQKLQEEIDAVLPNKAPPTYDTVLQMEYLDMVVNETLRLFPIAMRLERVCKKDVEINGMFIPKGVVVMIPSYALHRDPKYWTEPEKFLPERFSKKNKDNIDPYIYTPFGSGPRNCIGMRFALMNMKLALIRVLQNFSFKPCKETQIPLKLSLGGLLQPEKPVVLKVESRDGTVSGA
T3 sequence (P11712 whole entry): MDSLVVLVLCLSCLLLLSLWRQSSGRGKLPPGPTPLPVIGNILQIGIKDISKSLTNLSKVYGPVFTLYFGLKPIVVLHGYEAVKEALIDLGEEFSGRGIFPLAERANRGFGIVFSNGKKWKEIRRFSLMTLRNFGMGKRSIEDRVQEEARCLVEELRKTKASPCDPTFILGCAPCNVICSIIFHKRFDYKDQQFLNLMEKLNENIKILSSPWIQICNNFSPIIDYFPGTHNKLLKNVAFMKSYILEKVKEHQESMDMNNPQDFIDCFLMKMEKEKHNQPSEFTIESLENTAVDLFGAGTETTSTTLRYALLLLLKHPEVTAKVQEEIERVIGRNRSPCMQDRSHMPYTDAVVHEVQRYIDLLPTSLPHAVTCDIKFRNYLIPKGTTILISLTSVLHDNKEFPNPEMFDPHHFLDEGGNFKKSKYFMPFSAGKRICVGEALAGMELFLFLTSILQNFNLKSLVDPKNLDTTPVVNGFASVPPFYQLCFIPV

half-life at 1 μM [3, 12]	half-life at 1 μM [3, 13]	half-life at 1 μM [3, 14]	Ki [10]	Structure (SMILES)	fraction unbound at 5 hours, 1 uM ([1]; 10% FBS-RPMI)	EC50 [8]	EC50 [9]	fraction unbound at 5 hours, 1 uM ([4]; human serum (100%))	EC50 [5, 15]	further results
				Cc1nnc(C(=O)NC(C)(C)c2nc(C(=O)NCc3ccc(F)cc3)c(O)c(=O)n2C)o1 [Raltegravir, reference compound]						fraction unbound at 5 hours, 1 uM ([1]; serum): 0.653; EC50 ([2]; read-out: EC50 (uM) 10% FBS): 0.047 µM; EC50 ([2]; read-out: EC50 (uM) 10% FBS + 40% HS): 0.064 µM; half-life at 1 μM ([3]; microsomes, 1 mM NADPH and 1 mM UDPGA, read-out: Half-life in HLM (hrs) NADPH/UDPGA (converted)): 11 h; half-life at 1 μM ([3]; microsomes, 1 mM NADPH, read-out: Half-life in HLM (hrs) NADPH (converted)): 19.7 h; half-life at 1 μM ([3]; microsomes, 1 mM UDPGA, read-out: Half-life in HLM (hrs) UDPGA (converted)): 7.03 h; fraction unbound at 5 hours, 1 uM ([4]; serum): 0.133; EC50 [5]: 20 nM
3.9 h	7.4 h	19.7 h	5100 nM	O=C(NCc1ccc(F)cc1)c1cnc(C(=O)NOCc2ccccc2)c(OCc2ccccc2)c1CO [Example 1, N^2,3-bis(benzyloxy)-N^5-(4-fluorobenzyl)-4-(hydroxymethyl)pyridine-2,5-dicarboxamide]	0.475			0.11	> 10000 nM	Fold-change with HS ([2]; EC50 with 40% HS versus 10% FBS): 2.1; EC50 ([2]; 10% FBS + 40% HS, p24 ELISA after 6 days, read-out: EC50 (uM) 10% FBS + 40% HS): 0.481 µM; EC50 ([2]; 10% FBS, p24 ELISA after 6 days, read-out: EC50 (uM) 10% FBS): 0.227 µM; Ki [11]: 63600 nM
1.95 h	6.18 h	3.8 h	587000 nM	O=C(NCc1ccc2c(c1)OCO2)c1cnc(C(=O)NOCc2ccccc2)c(OCc2ccccc2)c1CO [Example 3, N^5-(benzo[d][1,3]dioxol-5-ylmethyl)-N2,3-bis(benzyloxy)-4-(hydroxymethyl)pyridine-2,5-dicarboxamide]		30 nM	93 nM		> 10000 nM	

Structure (SMILES)	half-life at 1 μM [3, 12]	half-life at 1 μM [3, 13]	half-life at 1 μM [3, 14]	Ki [10]	fraction unbound at 5 hours, 1 uM ([1]; 10% FBS-RPMI)	EC50 [8]	EC50 [9]	fraction unbound at 5 hours, 1 uM ([4]; human serum (100%))	EC50 [5, 15]	further results
O=C(NCc1ccc(F)cc1)c1cnc(C(=O)NO)c(O)c1CO [Example 2, N^5-(4-fluorobenzyl)-N^2,3-dihydroxy-4-(hydroxymethyl)pyridine-2,5-dicarboxamide]	5.9 h	5 h	16 h		0.681	123 nM	76 nM	0.155	358 nM	IC50 [6]: 303 nM; adsorption / PK profile (FIG. 1) [7]: high adsorption
